The target in test [1] is T1, BCL-XL (Homo sapiens, UniProt Q07817).
T1 construct: purchased Cisbio 63ADK000CB04PEG
Description: HTRF BCL-XL/BAK assay (Cisbio). Format: binding. The conditions noted are these: recombinant human Tag1-BCL-XL 2 nM, Tag2-BAK 5 nM. As to the method:
(§1) Then the pre-mixed anti-Tag1-Eu^3+ and anti-tag2-XL665 were added to the plate and further incubated at room temperature for another 2 hours. The signals ([…]) were read on Envision 2104 instrument. The IC50 for each compound was derived from fitting the signal of 665/615 nM to the increasing compound concentration.
(§2) Using the above assays, the following compounds were tested.
On the technique in general: TR-FRET usually uses a lanthanide donor and a delayed reading to cut background.

Test [2] relates to DOHH2 cells. Kind of test: CellTiter-Glo cell proliferation assay, DOHH2 cells. Format: cell-based. The conditions noted are these: Homo sapiens, DOHH-2, 72 hours. As to the method:
The CellTiter-Glo® Luminescent Cell Viability Assay (Promega, G7573) was used to study the cellular potency of disclosed compounds herein. The cells were harvested during the logarithmic growth period and counted with hemocytometer. The DOHH2 cells were seeded at 1.6*10^4 in 90 ul DMEM medium supplemented with 10% fetal bovine serum (FBS) (as RS4;11 cells were seeded at 4000 in 90 ul RPMI-1640 medium with 10% FBS) per well in 96-well plates and treated with 10 ul of a serial dilution of compounds disclosed herein (maximum concentration and dilution ratio determined by the results of pre-experiment may vary) for 72 hours in a 5% CO2 incubator at 37° C. Cell viability was assessed according to the manufacturer's recommendations. After the plates return to the room temperature, 100 ul of CellTiter-Glo® reagent was added to 100 ul of cell culture. The mixture was agitated on an orbital shaker for 2 minutes or placed it at room temperature for 10 minutes to allow cell lysis and stabilization of luminescent signals. Luminescent signals were recorded using Envision 2104 instrument. And GI50 values were then calculated.
(In general: Cellular ATP, detected with luciferase, serves as a proxy for viable cell number.)

In test [3] the target is T2, BCL-2 (Homo sapiens, UniProt P10415).
T2 construct: purchased Cisbio 63ADK000CB01PEG
T2 sequence (P10415 whole entry): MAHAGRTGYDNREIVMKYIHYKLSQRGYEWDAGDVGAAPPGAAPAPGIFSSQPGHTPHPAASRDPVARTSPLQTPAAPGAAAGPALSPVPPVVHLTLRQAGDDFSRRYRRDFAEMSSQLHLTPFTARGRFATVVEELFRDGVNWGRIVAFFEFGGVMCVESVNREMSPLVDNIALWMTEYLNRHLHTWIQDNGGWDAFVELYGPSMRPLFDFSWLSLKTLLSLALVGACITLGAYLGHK
Description: HTRF BCL-2/BAK assay (Cisbio). Format: binding. As to conditions: recombinant human Tag1-BCL-2 2 nM, Tag2-BAK 10 nM. Here is the method:
as §1, §2

Bounds are passed on as bounds.

T1 sequence (Q07817 whole entry): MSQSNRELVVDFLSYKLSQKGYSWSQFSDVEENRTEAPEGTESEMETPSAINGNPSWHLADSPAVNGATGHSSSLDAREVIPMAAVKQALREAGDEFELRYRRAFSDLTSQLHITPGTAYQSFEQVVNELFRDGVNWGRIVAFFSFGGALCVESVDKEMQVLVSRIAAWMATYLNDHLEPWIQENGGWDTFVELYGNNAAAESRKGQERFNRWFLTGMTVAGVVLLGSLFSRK

In the case of `O=C(NS(=O)(=O)c1ccc(NC[C@@H]2CO[C@@H]3OCC[C@H]23)c([N+](=O)[O-])c1)c1ccc(N2CCN([C@@H]3CCCCc4c(Br)cc(F)cc43)CC2)cc1Oc1cnc2[nH]ccc2c1` (relative stereo) [Compound 81, 2-((1H-pyrrolo[2,3-b]pyridin-5-yl)oxy)-4-(4-((R)-1-bromo-3-fluoro-6,7,8,9-tetrahydro-5H-benzo[7]annulen-5-yl)piperazin-1-yl)-N-((4-((((3R,3aR,6aS)-hexahydrofuro[2,3-b]furan-3-yl)methyl)amino)-3-nitrophenyl)sulfonyl)benzamide], the IC50 (usually the midpoint of a concentration-inhibition curve) in test [1] was in the range of 0.2 to 2 µM; in test [3], 0.02 to 0.2 µM. For the same compound, the GI50 – broadly, the concentration that inhibits growth by half – in test [2] lay within 0.5 to 5 µM.

For the compound `O=C(NS(=O)(=O)c1ccc(NC[C@H]2CO[C@H]3OCC[C@@H]23)c([N+](=O)[O-])c1)c1ccc(N2CCN([C@@H]3CCCCc4c(Br)cc(F)cc43)CC2)cc1Oc1cnc2[nH]ccc2c1` (relative stereo) [Compound 82, 2-((1H-pyrrolo[2,3-b]pyridin-5-yl)oxy)-4-(4-((R)-1-bromo-3-fluoro-6,7,8,9-tetrahydro-5H-benzo[7]annulen-5-yl)piperazin-1-yl)-N-((4-((((3S,3aS,6aR)-hexahydrofuro[2,3-b]furan-3-yl)methyl)amino)-3-nitrophenyl)sulfonyl)benzamide], the values for the IC50 in test [1] and in test [3] were 0.2 to 2 µM and < 0.02 µM, respectively. Moreover, the GI50 in test [2] lay in the range of 0.5 to 5 µM.

`O=C(NS(=O)(=O)c1cccc([N+](=O)[O-])c1)c1ccc(N2CCN(C3CCCCc4ccccc43)CC2)cc1Oc1cnc2[nH]ccc2c1` (stereo not drawn) [Compound 5, 2-((1H-pyrrolo[2,3-b]pyridin-5-yl)oxy)-N-((3-nitrophenyl)sulfonyl)-4-(4-(6,7,8,9-tetrahydro-5H-benzo[7]annulen-5-yl)piperazin-1-yl)benzamide]: the IC50 is 0.2 to 2 µM in test [1] and 0.02 to 0.2 µM in test [3]. The GI50 in test [2] is 0.5 to 5 µM.

For `O=C(NS(=O)(=O)c1ccc(NCC2CCOCC2)c([N+](=O)[O-])c1)c1ccc(N2CCN(C3COCc4ccccc43)CC2)cc1Oc1cnc2[nH]ccc2c1` (stereo not drawn) [Compound 12, 2-((1H-pyrrolo[2,3-b]pyridin-5-yl)oxy)-4-(4-(isochroman-4-yl)piperazin-1-yl)-N-((3-nitro-4-(((tetrahydro-2H-pyran-4-yl)methyl)amino)phenyl)sulfonyl)benzamide], the IC50 in test [1] was > 2 µM; in test [3], 0.02 to 0.2 µM. In addition, in test [2], the GI50 is 0.5 to 5 µM.

Take `CC(C)(C)OC(=O)N1CCC2(CC1)CC(CNc1ccc(S(=O)(=O)NC(=O)c3ccc(N4CCN([C@@H]5CCCCc6c(Cl)cccc65)CC4)cc3)cc1[N+](=O)[O-])C2` [Compound 116, tert-butyl (R)-2-(((4-(N-(4-(4-(1-chloro-6,7,8,9-tetrahydro-5H-benzo[7]annulen-5-yl)piperazin-1-yl)benzoyl)sulfamoyl)-2-nitrophenyl)amino)methyl)-7-azaspiro[3.5]nonane-7-carboxylate]: the IC50 in test [1] and in test [3] was > 2 µM in each case.

Take `CC(=O)N1CCC2(CC1)CC(CNc1ccc(S(=O)(=O)NC(=O)c3ccc(N4CCN([C@@H]5CCCCc6c(Cl)cccc65)CC4)cc3)cc1[N+](=O)[O-])C2` [Compound 118, (R)-N-((4-(((7-acetyl-7-azaspiro[3.5]nonan-2-yl)methyl)amino)-3-nitrophenyl)sulfonyl)-4-(4-(1-chloro-6,7,8,9-tetrahydro-5H-benzo[7]annulen-5-yl)piperazin-1-yl)benzamide]: the IC50 is > 2 µM in test [1] and 0.2 to 2 µM in test [3].

Consider `O=C(NS(=O)(=O)c1ccc(NCC2CC3(CCC(F)(F)CC3)C2)c([N+](=O)[O-])c1)c1ccc(N2CCN([C@@H]3CCCCc4c(Cl)cccc43)CC2)cc1Oc1cnc2[nH]ccc2c1` [Compound 135, (R)-2-((1H-pyrrolo[2,3-b]pyridin-5-yl)oxy)-4-(4-(1-chloro-6,7,8,9-tetrahydro-5H-benzo[7]annulen-5-yl)piperazin-1-yl)-N-((4-(((7,7-difluorospiro[3.5]nonan-2-y1)methyl)amino)-3-nitrophenyl)sulfonyl)benzamide], for which, in test [2], the GI50 was < 0.05 µM. The IC50 in test [3] is < 0.02 µM.

The record behind these values is patent US20240239792A1, “MODULATORS OF BCL-2 OR BCL-2/BCL-XL AND USES THEREOF” (APPICINE THERAPEUTICS (HK) LIMITED, priority 2021, published 2024).
